{
  "source": "patent US8389574B2",
  "about": "“Method useful for the prevention of type 2 diabetes and its complications in pre-diabetic patients with insulin resistance” (Sigma-Tau Industrie Farmaceutiche Riunite S.p.A., priority 2007, dated 2013)",
  "origin": "cited, not measured here",
  "details": "DPP participants at high risk for IGT and type 2 diabetes; over 3 years",
  "data": [
    {"smiles": "CN(C)C(=N)N=C(N)N", "note": "[metformin]", "values": [
      {"measurement": "Reduction of risk of getting type 2 diabetes", "result": 31, "unit": "%"}
    ]}
  ]
}
